Test results published in patent US12173309B2, “Compounds for increasing genome editing efficiency” (Max-Planck-Gesellschaft zur Förderung der Wissenschaften …, priority 2017, dated 2024).

Test system: 409-B2 iCRISPR-Cas9 iPSCs
Experiment: PGE efficiency with iCRISPR Cas9 and ssODN donors
Type: cell-based, human
Protocol: FIG. 1: Genome editing and analysis flowchart. iCRISPR 409-B2 iPSCs are treated with 2 μg/ml doxycycline at least for 2 days to induce Cas9 or Cas9D10A expression. Reverse transfection with RNAiMAX, gRNA (7.5 nM each), ssODN (10 nM) and the small molecules to be evaluated is carried out in a 96 well plate for 1 day. The amount of cells used gives ˜80% confluency. Cells are then expanded for 3 days with regular media change. After harvest follows DNA extraction, PCR amplification of targeted loci, Illumina sequencing and CRISPResso (Pinello et al. 2016) sequence analysis for amount of indels and precise genome editing.
Cells were incubated with media containing 2 μg/ml doxycycline (Clontech, 631311) 2 days prior to lipofection. Lipofection (reverse transfection) was done using the alt-CRISPR manufacturer's protocol (IDT) with a final concentration of 7.5 nM of each gRNA and 10 nM of the respective ssODN. In brief, 0.75 μl RNAiMAX (Invitrogen, 13778075) and the respective oligonucleotides were separately diluted in 25 μl OPTI-MEM (Gibco, 1985-062) each and incubated at room temperature for 5 min. Both dilutions were mixed to yield 50 μl of OPTI-MEM including RNAiMAX, gRNAs and ssODNs. The lipofection mix was incubated for 20-30 min at room temperature. During incubation cells were dissociated using EDTA for 5 min and counted using the Countess Automated Cell Counter (Invitrogen). The lipofection mix, 100 μl containing 25.000 dissociated cells in mTeSR1 supplemented with Y-27632, 2 μg/ml doxycycline and the respective small molecule(s) to be tested were throughoutly mixed and put in one well of a 96 well covered with Matrigel Matrix (Corning, 35248). Media was exchanged to regular mTeSR1 media after 24 hours.
Three days after lipofection cells were dissociated using Accutase (SIGMA, A6964), pelleted, and resuspended in 15 μl QuickExtract (Epicentre, QE0905T). Incubation at 65° C. for 10 min, 68° C. for 5 min and finally 98° C. for 5 min was performed to yield ssDNA as a PCR template. Primers for each targeted loci of CALD1, KATNA1 and SLITRK1 containing adapters for Illumina sequencing were ordered from IDT (Coralville, USA). PCR was done in a T100 Thermal Cycler (Bio-Rad) using the KAPA2G Robust PCR Kit (Peqlab, 07-KK5532-03) with supplied buffer B and 3 μl of cell extract in a total volume of 25 μl. The thermal cycling profile of the PCR was: 95° C. 3 min; 34×(95° 15 sec, 65° C. 15 sec, 72° C. 15 sec); 72° C. 60 sec. P5 and P7 Illumina adapters with sample specific indices were added in a second PCR reaction (Kircher et al. 2012) using Phusion HF MasterMix (Thermo Scientific, F-531L) and 0.3 μl of the first PCR product. The thermal cycling profile of the PCR was: 98° C. 30 sec; 25× (98° 10 sec, 58° C. 10 sec, 72° C. 20 sec); 72° C. 5 min. Amplifications were verified by size separating agarose gel electrophoresis using EX gels (Invitrogen, G4010-11). The indexed amplicons were purified using Solid Phase Reversible Immobilization (SPRI) beads (Meyer, Kircher 2010). Double-indexed libraries were sequenced on a MiSeq (Illumina) giving paired-end sequences of 2×150 bp. After base calling using Bustard (Illumina) adapters were trimmed using leeHom (Renaud et al. 2014).
CRISPresso (Pinello et al. 2016) was used to analyse sequencing data from CRISPR genome editing experiments for percentage of wildtype, targeted nucleotide substitutions (TNS), indels and mix of TNS and indels. Parameters used for analysis were ‘-w 20’, ‘--min_identity_score 70’ and ‘--ignore_substitutions’ (analysis was restricted to amplicons with a minimum of 70% similarity to the wildtype sequence and to a window of 20 bp from each gRNA; substitutions were ignored, as sequencing errors would be falsely characterized as NHEJ-events). Sequencing data from colonies after single cell seeding (FIGS. 3B and C) was further analyzed by evaluating the actual read sequences using SAMtools. Clonal colonies were differentiated from mixed colonies using sequence read proportions. […]

[1] = CALD1, 20 μM NU7026, 5 μM NSC 15520
[2] = KATNA1, 20 μM NU7026, 5 μM NSC 15520
[3] = SLITRK1, 20 μM NU7026, 5 μM NSC 15520

SMILES	effect on PGE frequency over CALD1, KATNA1 and SLITRK1 compared to controls (0.01 μM TSA, 0.5 μM MLN4924, 1 μM NSC 19630, 20 μM AICAR, 1 μM RS-1, 1 μM Resveratrol, 1 μM SCR7, 5 μM L755507, 5 μM STL127685, 20 μM B02)	PGE increase (mean change vs control) [1]	PGE increase (mean change vs control) [2]	PGE increase (mean change vs control) [3]
NS(=O)(=O)OC[C@@H]1C[C@@H](n2ccc3c(N[C@H]4CCc5ccccc54)ncnc32)C[C@@H]1O [MLN4924, Pevonedistat]	slight diminishing effect	–	–	–
CC(C)C1=CC23CCC4C(C)(C(=O)O)CCCC4(C)C2CC1C(C(=O)O)C3C(=O)O (stereo not shown) [NSC 15520, Fumaropimaric acid]	–	1.3 fold	no effect	no effect
O=c1cc(N2CCOCC2)oc2c1ccc1ccccc12 [NU7026]	–	1.5 fold	1.6 fold	1.2 fold
